Data from patent US20090042874A1, “ANTIDEPRESSANT HETEROARYL DERIVATIVES OF HETEROCYCLE-FUSED BENZODIOXANS” (WYETH, priority 2007, published 2009).
Counter-ions that a name gives are not always drawn. Like-named read-outs stand apart in the source and are kept apart here.

Tests used:
[1] = target: T1, Human Serotonin Transporter (h5HT-T) (Homo sapiens, UniProt P31645); conditions: read-out: human SERT SPA binding assay Ki
Description: (§1) MEDIA REAGENTS: Dulbecco's Modified Eagle Medium (DMEM) with High Glucose, L-Glutamine, 110 mg/L Sodium Pyruvate, Pyridoxine Hydrochloride containing: • a) 10% Fetal Bovine Serum, Heat-inactivated and Dialyzed (10,000 Mol Wt.) • b) 1% Pennicilin-streptomycin • c) 100 μg/ml Geneticin/G418 • 2. […] Immediately add 15 ml Cell Culture medium to inactivate trypsin and mix well. […] (eg. 1×T175 flask can seed 20×T175 flasks) • g) Incubate cells at 37° C., 5% CO2, in a humidified incubator. NOTE: Cells will grow to confluence within 3-4 days.
(§2) Cells are resuspended in 3 volumes of 50 mM Tris-HC1 (pH 7.4) to 1 volume of initial cell fraction • 2. Partially homogenize cells by swirling or by using transfer pipetor to make cell solution more homogenous and aliquot solution into 4 clear 50 ml polypropylene centrifuge tubes • 3. Tubes are balanced and spun down at 2,000 rpm for 10 minutes at 4° C. using the HS-4 rotor (rotor code 8) • 4. Supernatant is decanted and pellets resuspend in an additional 75 ml of 50 mM Tris-HCl (pH 7.4)→˜18 ml Tris to each of 4 tubes • 5. Spin cells again at 5, 000 rpm for minutes at 4° C. using the HS-4 rotor and decant supernatant • 6. Resuspend final pellts in appropriate volume of 50 nM Tris to yield protein concentration of ˜6 mg/ml • add 100 ml Tris to original cell suspension of 35 ml • add ˜72 ml; Tris to original cell suspension of 25 ml • 7. Add the appropriate final volume and split the cells into two/three 50 ml Falcon polypropylene tubes. Thoroughly vortex your cell suspension in these tubes to ensure homogeneity before aliquoting. • 8. Pool the samples from the 50 nl tubes into one larger flat-bottom vessel and stir constantly on ice (4° C.). • 9. While stirring, aliquot 1 ml portions out into 1.5 ml cryogenic vials. • 10. Store vials at −70° C. until subsequtn asay. Retain one aliquot for protein concentration, Kd and Bmax determination before starting experiments using new batch of cells. Proetin concentration is determined using the Lowry method.
(§3) Required buffers: • Assay buffer; 50 mM Tris HCl, 120 mM NaCl and 5 mM KCl, pH 7.4 • 2. Binding protocol: Preliminary screening assays are performed using single replicates on duplicate plates. Dose-response binding assays are performed in a single replicates on duplicate OptiPlates (Perkin Elmer) using 0.1 nM to 3 μM of test drug.
(§4) a) To each well add 10 μL of test compound, blank compound (10 μM Fluoxetine), or assay buffer (50 mM Tris HCl, 120 mM NaCl and 5 mM KCl, pH 7.4. Each well is then supplemented with 40 μL of assay buffer.
(§5) The isotope solution is also disuted in 50 mM Tris HCl, 120 mM NaCl and 5 mM KCl, pH 7.4 • c) Resuspend membrane pellet in binding buffer to achieve a solution containing 5 μg of protein in 50 μL. This will yield a final protein concentration of 5 μg/well. • d) To each well add 0.5 mg of Wheatgerm Agglutinin (WGA) SPA beads in 50 μl of 50 mM Tris HCl, 120 mM NaCl and 5 mM KCl, pH 7.4 • e) Incubate plates, while gently shaking, for at least 1 hour so as to reach equilibrium. Plates can still be read if left to incubate overnight without loss of signal. • f) Count plates on TopCount.
(§6) 3H-Citallopram binding is expressed as percent of specific binding, with IC50 and Ki VALUES DETERMINED BY nonlinear regression analysis using the Activity Base software package. Specific binding is defined as total binding observed in the presence of 10 μM fluoxetine.

[2] = target: T2, h-5HT1A (Homo sapiens, UniProt P08908); assay: 5HT1A receptor SPA binding assay, [3H]-OH DPAT, CHO cell membranes; conditions: [3H]-OH DPAT 3 nM
T2 construct: expressed in transfected cells; host or cells: CHO cells grown in suspension in a 10 liter bioreactor
T2 sequence (P08908 1-422): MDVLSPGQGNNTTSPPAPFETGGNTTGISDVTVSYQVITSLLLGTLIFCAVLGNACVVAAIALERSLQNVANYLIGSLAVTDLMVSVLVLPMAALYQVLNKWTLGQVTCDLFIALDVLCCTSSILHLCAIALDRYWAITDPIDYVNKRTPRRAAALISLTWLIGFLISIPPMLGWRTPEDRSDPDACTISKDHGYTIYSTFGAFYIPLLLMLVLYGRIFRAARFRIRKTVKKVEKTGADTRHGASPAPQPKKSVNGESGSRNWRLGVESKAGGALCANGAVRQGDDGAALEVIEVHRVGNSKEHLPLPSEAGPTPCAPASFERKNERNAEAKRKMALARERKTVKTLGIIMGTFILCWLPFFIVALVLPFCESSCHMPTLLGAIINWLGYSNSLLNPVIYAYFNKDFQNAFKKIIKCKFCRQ
Description: Determination of the Inhibitory Activity of Compounds at the Serotonin 5HT1A Receptor Subtype using Scintillation Proximity Assay (SPA) Technology
Cells: CHO cells expressing the serotonin 5HT1A receptor subtype were grown in suspension in 10 liter bioreactor and supplied as a wet cell pellet
Binding experiments are performed in a total volume of 200 μl using a 96 well microtiter plate format (Packard Optiplate). On the day of the assay, the membranes are thawed and resuspended with enough 50 mM Tris (HCI) pH 7.5, 10 mM MgCl2, 0.2 mM EDTA, 10 μM pargyline, and 0.1% ascorbate (assay buffer) to achieve a protein concentration of 800 μg/ml. To each well of the microtiter plate, 20 μl of 10× test compound in water containing 3.3% DMSO, 3 nM of [3H]-OH DPAT (Amersham, SA: 200 Ci/mmol), 80 μg cell membrane and assay buffer are combined to achieve a volume of 150 μl. Assay buffer and 10 μM cold 5-HT are substituted for the test compound in separate wells to define ‘total’ and ‘nonspecific’ bindings, respectively. The incubation period is initiated by the addition of 50 μl of 10 mg/ml PVT WGA SPA beads (RPNQ0060, Amersham GE Healthcare) resuspended in assay buffer for a final concentration of 0.5 mg/well. The plates are sealed and gently shaken at room temperature using an orbital shaker (setting 1.5) until equilibrium is achieved (2 h-overnight incubation). Radioactivity (CPM) is measured by Packard TopCount (1 min counting time/well).
Specific binding is described as the total radioactivity bound less the amount bound in the presence of 10 μM 5HT, referred to as non-specific binding (NSB). Binding in the presence of varying concentrations of test compounds is expressed as percent of specific binding in the absence of compound.
{(Bound−NSB)/(Total−NSB)}×100=% Total
Regression analysis of % bound data from ten concentrations is performed in GraphPad Prism, XL Fit or equivalent software. IC50 values are calculated using a four-parameter logistic curve fitting model and Ki values are calculated by the Cheng-Prusoff equation below: […]
where L is the nM concentration of the radioactive ligand used and the Kd is the dissociation constant of the ligand for the receptor. The Kd for [3H-OH DPAT in the SPA binding format is 3 nM. • Single dose
Percent inhibition: The displacement of […] by the test compound at h5-HT1A as determined by: [(Total DPM−compound DPM)/(Total DPM−NSB DPM)]×100. • Conc.: concentration of test compound; NBS: non-specific binding; DPM: disintegrations per min

[3] = target: T3, cloned human 5HT1A receptors (Homo sapiens, UniProt P08908); assay: 35S-GTPγS binding assay, agonist/antagonist activity at 5HT1A receptors; assay type: biochemical
T3 construct: expressed in transfected cells
T3 sequence (P08908 1-422): T2 sequence (P08908 1-422)
Description: Determination of […] or Antagonist Activity at 5HT1A Receptors
Antagonist or antagonist activity at 5HT1A receptors was established by using a ^35S-GTPγS binding assay similar to that used by Lazareno and Birdsall (Br. J. Pharmacol. 109: 1120, 1993), in which the test compound's ability to affect the binding of ^35S-GTPγS to membranes containing cloned human 5HT1A receptors was determined. Agonists produce an increase in binding whereas antagonists produce no increase but rather reverse the effects of the standard agonist 8-OH-DPAT. The test compound's maximum inhibitory effect is represented as the Imax, while its potency is defined by the IC50. The results of the three standard experimental test procedures described in the preceding three paragraphs were as follows: […]

[4] = target: T4, human 5HT1A receptors (Homo sapiens, UniProt P08908); assay: Displacement of [3H] 8-OH-DPAT from 5HT1A receptor, CHO cells stably transfected with human 5HT1A receptors; assay type: binding; conditions: [3H] 8-OH-DPAT displacement, CHO cells with human 5HT1A; read-out: 5HT1A Receptor Affinity Ki
T4 construct: expressed in transfected cells; host or cells: CHO cells
T4 sequence (P08908 1-422): T2 sequence (P08908 1-422)
From the text: High affinity for the serotonin 5HT1A receptor was established by testing the claimed compound's ability to displace [^3H] 8-OH-DPAT (dipropylamino-tetralin) from the 5HT1A serotonin receptor following a modification of the procedure of Hall et al., J. Neurochem. 44, 1685 (1985) which utilizes CHO cells stably transfected with human 5HT1A receptors.

[5] = target: T5, serotonin transporter (Rattus norvegicus, UniProt P31652); assay: Displacement of 3H-paroxetine from male rat frontal cortical membranes (serotonin transporter affinity); assay type: binding; conditions: 3H-paroxetine displacement, read-out: 5-HT Transporter Affinity Ki
T5 construct: displace ^3H-paroxetine from male rat frontal cortical membranes; from tissue; host or cells: male rat frontal cortex membranes
From the text: Affinity of Compounds of the Invention for the Serotonin Transporter

[6] = target: T1, Human Serotonin Transporter (h5HT-T); assay: biochemical
Description: as §1, §2, §3, §4, §5, §6

T5 sequence (P31652 whole entry): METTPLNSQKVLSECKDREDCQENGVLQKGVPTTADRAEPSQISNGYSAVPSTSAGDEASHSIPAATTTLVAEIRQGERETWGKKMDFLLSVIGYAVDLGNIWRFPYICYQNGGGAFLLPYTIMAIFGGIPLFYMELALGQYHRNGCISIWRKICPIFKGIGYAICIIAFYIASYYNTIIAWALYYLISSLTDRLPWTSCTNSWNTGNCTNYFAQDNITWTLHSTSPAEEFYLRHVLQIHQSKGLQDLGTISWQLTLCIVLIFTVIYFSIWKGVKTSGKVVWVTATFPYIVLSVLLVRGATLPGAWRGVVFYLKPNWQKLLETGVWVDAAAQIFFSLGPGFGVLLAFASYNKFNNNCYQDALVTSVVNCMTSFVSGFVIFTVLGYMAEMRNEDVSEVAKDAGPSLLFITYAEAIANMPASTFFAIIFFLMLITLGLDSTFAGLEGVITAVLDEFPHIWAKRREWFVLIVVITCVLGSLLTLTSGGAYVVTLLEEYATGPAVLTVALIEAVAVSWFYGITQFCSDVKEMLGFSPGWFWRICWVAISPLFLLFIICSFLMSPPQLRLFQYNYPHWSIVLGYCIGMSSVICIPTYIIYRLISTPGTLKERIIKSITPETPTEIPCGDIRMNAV
T1 sequence (P31645 whole entry): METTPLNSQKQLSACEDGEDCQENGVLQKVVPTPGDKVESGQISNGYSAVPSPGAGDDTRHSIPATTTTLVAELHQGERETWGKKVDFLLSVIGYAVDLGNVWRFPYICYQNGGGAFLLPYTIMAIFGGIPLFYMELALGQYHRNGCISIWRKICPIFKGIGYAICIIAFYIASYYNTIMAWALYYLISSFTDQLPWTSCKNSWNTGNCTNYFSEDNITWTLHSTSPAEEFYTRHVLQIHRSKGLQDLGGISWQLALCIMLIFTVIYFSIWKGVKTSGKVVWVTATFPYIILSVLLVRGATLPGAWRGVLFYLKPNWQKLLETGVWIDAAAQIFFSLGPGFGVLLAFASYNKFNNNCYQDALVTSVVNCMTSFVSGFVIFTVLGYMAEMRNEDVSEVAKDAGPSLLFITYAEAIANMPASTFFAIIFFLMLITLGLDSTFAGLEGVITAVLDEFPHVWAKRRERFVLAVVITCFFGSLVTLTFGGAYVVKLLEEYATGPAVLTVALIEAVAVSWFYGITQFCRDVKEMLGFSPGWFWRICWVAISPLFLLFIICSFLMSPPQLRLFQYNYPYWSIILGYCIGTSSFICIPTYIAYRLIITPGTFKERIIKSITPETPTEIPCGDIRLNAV

Ki [2] [nM] | Ki [4] [nM] | Ki [5] [nM] | Ki [6] [nM] | Compound | other results
 | 0.26 | 9.5 |  | Cc1ccc2c3c(ccc2n1)OC[C@H](CN1CCC(Oc2ccc4c(c2)NC(=O)CO4)CC1)O3 [Example 1, 6-[(1-{[(2S)-8-methyl-2,3-dihydro[1,4]dioxino[2,3-f]quinolin-2-yl]methyl}piperidin-4-yl)oxy]-2H-1,4-benzoxazin-3(4H)-one dihydrochloride salt] | IC50 ([3]; reversal of 8-OH-DPAT effect, read-out: 5HT1A Function IC50): 59.3 nM; 5HT1A Function Imax (maximum inhibitory effect) ([3]; value in parentheses): 97
 | 0.59 | 2.66 |  | Cc1ccc2c3c(ccc2n1)OC[C@H](CN1CCC(CCc2ccc4c(c2)NC(=O)CO4)CC1)O3 [Example 14, 6-[2-(1-{[(2S)-8-Methyl-2,3-dihydro[1,4]dioxino[2,3-f]quinolin-2-yl]methyl}piperidin-4-yl)ethyl]-2H-1,4-benzoxazin-3(4H)-one dihydrochloride salt] | 
 | 0.4 | 5 |  | Cc1ccc2c3c(ccc2n1)OC[C@H](CN1CCCC(Cc2ccc4c(c2)NC(=O)CO4)C1)O3 (stereo partly drawn) [Example 16, 6-[(1-{[(2S)-8-Methyl-2,3-dihydro[1,4]dioxino[2,3-f]quinolin-2-yl]methyl}piperidin-3-yl)methyl]-2H-1,4-benzoxazin-3(4H)-one dihydrochloride salt] | 
 | 0.28 | 38.1 |  | Cc1ccc2c3c(ccc2n1)OC[C@H](CN1CCC(Oc2ccc4c(c2)NC(=O)CC4)CC1)O3 [Example 17, 7-[(1-{[(2S)-8-Methyl-2,3-dihydro[1,4]dioxino[2,3-f]quinolin-2-yl]methyl}piperidin-4-yl)oxy]-3,4-dihydroquinolin-2(1H)-one dihydrochloride salt] | 
 | 0.93 | 35.2 |  | Cc1ccc2c3c(ccc2n1)OC[C@H](CNC1CCN(c2ccc4c(c2)NC(=O)CO4)CC1)O3 [Example 18, 6-(4-{[(8-methyl-2,3-dihydro[1,4]dioxino[2,3-f]quinolin-2-yl)methyl]amino}piperidin-1-yl)-2H-1,4-benzoxazin-3(4H)-one dihydrochloride salt] | 
13.8 |  |  | 146 | Cc1ccc2c3c(ccc2n1)OC[C@H](CN1CCC[C@@H](Oc2ccc4c(c2)NC(=O)CO4)C1)O3 [Example 25, 6-{[(3R)-1-{[(2S)-8-Methyl-2,3-dihydro[1,4]dioxino[2,3-f]quinolin-2-yl]methyl}piperidin-3-yl]oxy}-2H-1,4-benzoxazin-3(4H)-one] | 
361 |  |  | 376 | Cc1ccc2c3c(ccc2n1)OC[C@H](CN1CCC[C@H](Oc2ccc4c(c2)NC(=O)CO4)C1)O3 [Example 26, 6-{[(3S)-1-{[(2S)-8-Methyl-2,3-dihydro[1,4]dioxino[2,3-f]quinolin-2-yl]methyl}piperidin-3-yl]oxy}-2H-1,4-benzoxazin-3(4H)-one] | 

More lines, now with the values behind:

Compound | Ki [2] [nM] | Ki [4] [nM] | Ki [5] [nM] | Ki [6] [nM] | other results
8-Fluoro-6-[(1-{[(2S)-8-methyl-2,3-dihydro[1,4]dioxino[2,3-f]quinolin-2-yl]methyl}piperidin-4-yl)methyl]-2H-1,4-benzoxazin-3(4H)-one [Example 21a] | 15.5 |  |  |  | Ki [1]: 68.2 nM
8-Fluoro-6-[(1-{[(2S)-8-methyl-2,3-dihydro[1,4]dioxino[2,3-f]quinolin-2-yl]methyl}piperidin-4-yl)methyl]-2H-1,4-benzoxazin-3(4H)-one [Example 21b] | 1.12 |  |  |  | Ki [1]: 1.74 nM
Cc1ccc2c3c(ccc2n1)OC[C@H](CN1CCC(CCc2ccc4c(c2)N(C)C(=O)CO4)CC1)O3 [Example 13, 4-Methyl-6-[2-(1-{[(2S)-8-methyl-2,3-dihydro[1,4]dioxino[2,3-f]quinolin-2-yl]methyl}piperidin-4-yl)ethyl]-2H-1,4-benzoxazin-3(4H)-one dihydrochloride salt] |  | 0.63 | 13.9 |  | 
Cc1ccc2c3c(ccc2n1)OC[C@H](CN1CCCC(Cc2ccc4c(c2)N(C)C(=O)CO4)C1)O3 (stereo partly drawn) [Example 15, 4-Methyl-6-[(1-{[(2S)-8-methyl-2,3-dihydro[1,4]dioxino[2,3-f]quinolin-2-yl]methyl}piperidin-3-yl)methyl]-2H-1,4-benzoxazin-3(4H)-one dihydrochloride salt] |  | 0.68 | 82 |  | 
Cc1ccc2c3c(ccc2n1)OC[C@H](CN1CCC(Cc2ccc4c(c2)NC(=O)CC4)CC1)O3 [Example 20, 7-[(1-{[(2S)-8-Methyl-2,3-dihydro[1,4]dioxino[2,3-f]quinolin-2yl]methyl}piperidin-4-yl)methyl]-3,4-dihydroquinolin-2(1H)-one] | 1.15 |  |  | 5.88 | 
Cc1ccc2c3c(ccc2n1)OC[C@H](CN1C2CCC1CC(Cc1ccc4c(c1)NC(=O)CC4)C2)O3 (stereo partly drawn) [Example 23, 7-[(8-{[(2S)-8-Methyl-2,3-dihydro[1,4]dioxino[2,3-f]quinolin-2-yl]methyl}-8-azabicyclo[3.2.1]oct-3-yl)methyl]-3,4-dihydroquinolin-2(1H)-one] | 2.42 |  |  | 12.4 | 
Cc1ccc2c3c(ccc2n1)OC[C@H](CN1CCCC(Cc2ccc4c(c2)NC(=O)CC4)C1)O3 (stereo partly drawn) [Example 24, 7-[(1-{[(2S)-8-Methyl-2,3-dihydro[1,4]dioxino[2,3-f]quinolin-2-yl]methyl}piperidin-3-yl)methyl]-3,4-dihydroquinolin-2(1H)-one] | 2.33 |  |  | 9.77 | 
